# Measured values taken from US20080114007A1 (priority 2006, published 2008).
# Biological target: CSF-1R (Homo sapiens, UniProt P07333)
# Test: Peptide (non-phosphorylated) assay, fluorescence polarization competition immunoassay
# Assay type: biochemical
# Conditions: 0.7 nM CSF-1R, 308 μM SYEGNSYTFIDPTQ peptide, 1 mM ATP, 80 min; mean of at least three determinations; read-out: c-fms Peptide IC50
# Procedure, shortened: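 Human CSF-1R kinase reaction started with ATP and run 80 min at room temperature, then stopped with EDTA. Phosphopeptide detected by fluorescence polarization competition using anti-phosphotyrosine antibody and PTK green tracer after 30 min. Controls used 4% DMSO, with EDTA added before reaction start for positive controls.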
# Sequence of CSF-1R (P07333 20-972): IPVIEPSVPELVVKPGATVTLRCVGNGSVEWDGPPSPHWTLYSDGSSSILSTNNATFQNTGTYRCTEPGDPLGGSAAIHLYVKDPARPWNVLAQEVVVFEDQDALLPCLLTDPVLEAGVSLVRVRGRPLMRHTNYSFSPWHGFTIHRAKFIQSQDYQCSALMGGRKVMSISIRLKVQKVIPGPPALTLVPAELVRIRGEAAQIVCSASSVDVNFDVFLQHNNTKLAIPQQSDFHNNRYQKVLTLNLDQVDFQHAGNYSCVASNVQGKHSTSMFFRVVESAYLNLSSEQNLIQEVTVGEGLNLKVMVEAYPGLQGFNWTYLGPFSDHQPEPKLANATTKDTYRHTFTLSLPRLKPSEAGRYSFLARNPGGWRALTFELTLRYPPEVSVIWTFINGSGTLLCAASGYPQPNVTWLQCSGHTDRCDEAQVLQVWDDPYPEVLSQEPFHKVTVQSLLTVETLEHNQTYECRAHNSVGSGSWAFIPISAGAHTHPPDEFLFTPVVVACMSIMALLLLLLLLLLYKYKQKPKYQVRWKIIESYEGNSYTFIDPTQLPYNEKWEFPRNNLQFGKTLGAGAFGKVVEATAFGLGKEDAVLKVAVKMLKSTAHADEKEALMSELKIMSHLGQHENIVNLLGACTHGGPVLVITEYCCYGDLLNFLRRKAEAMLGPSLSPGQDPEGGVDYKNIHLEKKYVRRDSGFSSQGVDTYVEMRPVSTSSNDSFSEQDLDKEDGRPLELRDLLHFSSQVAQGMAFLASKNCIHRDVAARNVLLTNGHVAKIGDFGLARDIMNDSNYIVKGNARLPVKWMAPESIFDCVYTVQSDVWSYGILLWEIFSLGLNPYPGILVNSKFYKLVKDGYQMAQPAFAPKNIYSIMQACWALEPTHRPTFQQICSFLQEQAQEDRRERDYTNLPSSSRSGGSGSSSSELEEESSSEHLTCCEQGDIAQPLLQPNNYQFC
row,IC50,Structure (SMILES)
1,0.55 nM,"CONC(=O)c1cn(-c2ccc3c(c2)CCC3)c2nc(Nc3ccc(CCN4CCC[C@@H]4CO)cc3)ncc2c1=O [Cpd 101, (R)-2-{4-[2-(2-hydroxymethyl-pyrrolidin-1-yl)-ethyl]-phenylamino}-8-indan-5-yl-5-oxo-5,8-dihydro-pyrido[2,3-d]pyrimidine-6-carboxylic acid methoxy-amide]"
2,7.2 nM,"CCc1ccc(-n2cc(C(=O)NOC)c(=O)c3cnc(Nc4ccc(CC(=O)O)cc4)nc32)cc1 [Cpd 103, {4-[8-(4-ethyl-phenyl)-6-methoxycarbamoyl-5-oxo-5,8-dihydro-pyrido[2,3-d]pyrimidin-2-ylamino]-phenyl}-acetic acid]"
3,1.4 nM,"CCc1ccc(-n2cc(C(=O)NOC)c(=O)c3cnc(Nc4ccc(CC(=O)NN(C)C)cc4)nc32)cc1 [Cpd 105, 2-[4-(N′,N′-dimethyl-hydrazinocarbonylmethyl)-phenylamino]-8-(4-ethyl-phenyl)-5-oxo-5,8-dihydro-pyrido[2,3-d]pyrimidine-6-carboxylic acid methoxy-amide]"
4,0.58 nM,"CONC(=O)c1cn(-c2ccc3c(c2)CCC3)c2nc(Nc3ccc(C4CCN(C(C)C)CC4)cc3)ncc2c1=O [Cpd 111, 8-indan-5-yl-2-[4-(1-isopropyl-piperidin-4-yl)-phenylamino]-5-oxo-5,8-dihydro-pyrido[2,3-d]pyrimidine-6-carboxylic acid methoxy-amide]"
5,9.6 nM,"CN1CCN(c2ccc(Nc3ncc4c(=O)c(C(N)=O)cn(Cc5ccccc5)c4n3)cc2)CC1 [Cpd 114, 8-benzyl-2-[4-(4-methyl-piperazin-1-yl)-phenylamino]-5-oxo-5,8-dihydro-pyrido[2,3-d]pyrimidine-6-carboxylic acid amide]"
6,5.3 nM,"CNC(=O)c1cn(-c2ccc3c(c2)CCC3)c2nc(Nc3cccc(CCCN(C)C)c3)ncc2c1=O [Cpd 116, 2-[3-(3-dimethylamino-propyl)-phenylamino]-8-indan-5-yl-5-oxo-5,8-dihydro-pyrido[2,3-d]pyrimidine-6-carboxylic acid methylamide]"
7,4.5 nM,"CN(C)C(=O)Cc1ccc(Nc2ncc3c(=O)c(C(N)=O)cn(-c4ccc5c(c4)CCC5)c3n2)cc1 [Cpd 118, 2-(4-dimethylcarbamoylmethyl-phenylamino)-8-indan-5-yl-5-oxo-5,8-dihydro-pyrido[2,3-d]pyrimidine-6-carboxylic acid amide]"
8,4.5 nM,"CN(C)C(=O)c1ccc(Nc2ncc3c(=O)c(C(N)=O)cn(-c4ccc5c(c4)CCC5)c3n2)cc1 [Cpd 123, 2-(4-dimethylcarbamoyl-phenylamino)-8-indan-5-yl-5-oxo-5,8-dihydro-pyrido[2,3-d]pyrimidine-6-carboxylic acid amide]"
9,5.7 nM,"NC(=O)c1cn(-c2ccc3c(c2)CCC3)c2nc(Nc3cccc(N4CCCC4)c3)ncc2c1=O [Cpd 125, 8-indan-5-yl-5-oxo-2-(3-pyrrolidin-1-yl-phenylamino)-5,8-dihydro-pyrido[2,3-d]pyrimidine-6-carboxylic acid amide]"
10,1.1 nM,"CONC(=O)c1cn(-c2ccc3c(c2)CCC3)c2nc(Nc3ccc(CN4CCN(C)CC4)cc3)ncc2c1=O [Cpd 128, 8-indan-5-yl-2-[4-(4-methyl-piperazin-1-ylmethyl)-phenylamino]-5-oxo-5,8-dihydro-pyrido[2,3-d]pyrimidine-6-carboxylic acid methoxy-amide]"
11,1.6 nM,"CONC(=O)c1cn(-c2ccc3c(c2)CCC3)c2nc(Nc3ccc(CCN4CCCC4)cc3)ncc2c1=O [Cpd 130, 8-indan-5-yl-5-oxo-2-[4-(2-pyrrolidin-1-yl-ethyl)-phenylamino]-5,8-dihydro-pyrido[2,3-d]pyrimidine-6-carboxylic acid methoxy-amide]"
12,12 nM,"COCCNC(=O)c1cn(-c2ccc3c(c2)CCC3)c2nc(Nc3ccc(CCN4CCCC4)cc3)ncc2c1=O [Cpd 132, 8-indan-5-yl-5-oxo-2-[4-(2-pyrrolidin-1-yl-ethyl)-phenylamino]-5,8-dihydro-pyrido[2,3-d]pyrimidine-6-carboxylic acid (2-methoxy-ethyl)-amide]"
13,6.8 nM,"CONC(=O)c1cn(-c2ccc3c(c2)CCC3)c2nc(Nc3ccc(CCN4CCCC4=O)cc3)ncc2c1=O [Cpd 134, 8-indan-5-yl-5-oxo-2-{4-[2-(2-oxo-pyrrolidin-1-yl)-ethyl]-phenylamino}-5,8-dihydro-pyrido[2,3-d]pyrimidine-6-carboxylic acid methoxy-amide]"

# Continued, molecule first:
row,Structure (SMILES),IC50
1,"CONC(=O)c1cn(-c2ccc3c(c2)CCC3)c2nc(Nc3ccc(CCN(CCO)CCO)cc3)ncc2c1=O [Cpd 100, 2-(4-{2-[bis-(2-hydroxy-ethyl)-amino]-ethyl}-phenylamino)-8-indan-5-yl-5-oxo-5,8-dihydro-pyrido[2,3-d]pyrimidine-6-carboxylic acid methoxy-amide]",0.64 nM
2,"CONC(=O)c1cn(-c2ccc3c(c2)CCC3)c2nc(Nc3ccc(CC(=O)NN4CCCCC4)cc3)ncc2c1=O [Cpd 102, 8-indan-5-yl-5-oxo-2-[4-(piperidin-1-ylcarbamoylmethyl)-phenylamino]-5,8-dihydro-pyrido[2,3-d]pyrimidine-6-carboxylic acid methoxy-amide]",2.3 nM
3,"CCc1ccc(-n2cc(C(=O)NOC)c(=O)c3cnc(Nc4ccc(CC(=O)NN5CCCCC5)cc4)nc32)cc1 [Cpd 104, 8-(4-ethyl-phenyl)-5-oxo-2-[4-(piperidin-1-ylcarbamoylmethyl)-phenylamino]-5,8-dihydro-pyrido[2,3-d]pyrimidine-6-carboxylic acid methoxy-amide]",3 nM
4,"CCc1ccc(-n2cc(C(=O)NOC)c(=O)c3cnc(Nc4ccc(CC(=O)NNC)cc4)nc32)cc1 [Cpd 106, 8-(4-ethyl-phenyl)-2-[4-(N′-methyl-hydrazinocarbonylmethyl)-phenylamino]-5-oxo-5,8-dihydro-pyrido[2,3-d]pyrimidine-6-carboxylic acid methoxy-amide]",1.6 nM
5,"CONC(=O)c1cn(-c2ccc3c(c2)CCC3)c2nc(Nc3ccc(CCNC4C5CC6CC(C5)CC4C6)cc3)ncc2c1=O (centres unmarked) [Cpd 107, 2-{4-[2-(adamantan-2-ylamino)-ethyl]-phenylamino}-8-indan-5-yl-5-oxo-5,8-dihydro-pyrido[2,3-d]pyrimidine-6-carboxylic acid methoxy-amide]",1.5 nM
6,"CONC(=O)c1cn(-c2ccc3c(c2)CCC3)c2nc(Nc3ccc(CCNC4CC5CCC4C5)cc3)ncc2c1=O (centres unmarked) [Cpd 108, 2-{4-[2-(bicyclo[2.2.1]hept-2-ylamino)-ethyl]-phenylamino}-8-indan-5-yl-5-oxo-5,8-dihydro-pyrido[2,3-d]pyrimidine-6-carboxylic acid methoxy-amide]",0.88 nM
7,"CONC(=O)c1cn(-c2ccc3c(c2)CCC3)c2nc(Nc3ccc(CCN4CCC[C@@H]4C(=O)O)cc3)ncc2c1=O [Cpd 109, (R)-1-{2-[4-(8-indan-5-yl-6-methoxycarbamoyl-5-oxo-5,8-dihydro-pyrido[2,3-d]pyrimidin-2-ylamino)-phenyl]-ethyl}-pyrrolidine-2-carboxylic acid]",1.1 nM
8,"CONC(=O)c1cn(-c2ccc3c(c2)CCC3)c2nc(Nc3ccc(CCN4C5CCC4CC5)cc3)ncc2c1=O [Cpd 110, 2-{4-[2-(7-aza-bicyclo[2.2.1]hept-7-yl)-ethyl]-phenylamino}-8-indan-5-yl-5-oxo-5,8-dihydro-pyrido[2,3-d]pyrimidine-6-carboxylic acid methoxy-amide]",0.46 nM
9,"CCNC(=O)c1cn(-c2ccc3c(c2)CCC3)c2nc(Nc3cccc(CCCN(C)C)c3)ncc2c1=O [Cpd 117, 2-[3-(3-dimethylamino-propyl)-phenylamino]-8-indan-5-yl-5-oxo-5,8-dihydro-pyrido[2,3-d]pyrimidine-6-carboxylic acid ethylamide]",6.5 nM
10,"NC(=O)c1cn(-c2ccc3c(c2)CCC3)c2nc(Nc3cccc(C(=O)N4CCOCC4)c3)ncc2c1=O [Cpd 120, 8-indan-5-yl-2-[3-(morpholine-4-carbonyl)-phenylamino]-5-oxo-5,8-dihydro-pyrido[2,3-d]pyrimidine-6-carboxylic acid amide]",17 nM
11,"NC(=O)c1cn(-c2ccc3c(c2)CCC3)c2nc(Nc3ccc(C(=O)N4CCCC4)cc3)ncc2c1=O [Cpd 122, 8-indan-5-yl-5-oxo-2-[4-(pyrrolidine-1-carbonyl)-phenylamino]-5,8-dihydro-pyrido[2,3-d]pyrimidine-6-carboxylic acid amide]",6.6 nM
12,"CC(=O)N1CCC(c2ccc(Nc3ncc4c(=O)c(C(N)=O)cn(-c5ccc6c(c5)CCC6)c4n3)cc2)CC1 [Cpd 126, 2-[4-(1-acetyl-piperidin-4-yl)-phenylamino]-8-indan-5-yl-5-oxo-5,8-dihydro-pyrido[2,3-d]pyrimidine-6-carboxylic acid amide]",1.8 nM
13,"CONC(=O)c1cn(-c2ccc3c(c2)CCC3)c2nc(Nc3cccc(S(=O)(=O)N(C)C)c3)ncc2c1=O [Cpd 129, 2-(3-dimethylsulfamoyl-phenylamino)-8-indan-5-yl-5-oxo-5,8-dihydro-pyrido[2,3-d]pyrimidine-6-carboxylic acid methoxy-amide]",2.3 nM
14,"CC(C)ONC(=O)c1cn(-c2ccc3c(c2)CCC3)c2nc(Nc3ccc(CCN4CCCC4)cc3)ncc2c1=O [Cpd 133, 8-indan-5-yl-5-oxo-2-[4-(2-pyrrolidin-1-yl-ethyl)-phenylamino]-5,8-dihydro-pyrido[2,3-d]pyrimidine-6-carboxylic acid isopropoxy-amide]",1.2 nM
15,"CCONC(=O)c1cn(-c2ccc3c(c2)CCC3)c2nc(Nc3ccc(CCN4CCCC4=O)cc3)ncc2c1=O [Cpd 135, 8-indan-5-yl-5-oxo-2-{4-[2-(2-oxo-pyrrolidin-1-yl)-ethyl]-phenylamino}-5,8-dihydro-pyrido[2,3-d]pyrimidine-6-carboxylic acid ethoxy-amide]",66 nM
16,"CCONC(=O)c1cn(-c2ccc3c(c2)CCC3)c2nc(Nc3ccc(S(=O)(=O)N(C)C)cc3)ncc2c1=O [Cpd 136, 2-(4-dimethylsulfamoyl-phenylamino)-8-indan-5-yl-5-oxo-5,8-dihydro-pyrido[2,3-d]pyrimidine-6-carboxylic acid ethoxy-amide]",4.2 nM
